Test results reported in patent publication US6294568A, “5-arylpyrrole derivatives” (priority 1997, dated 2001).

What was measured:
Human COX-2 = molecular target: T1, Human COX-2 (Homo sapiens, UniProt P35354); conditions: ratio of IC50 COX-1 to COX-2; cited from earlier work
T1 construct: endogenous in cells; host or cells: heparinised whole blood of a healthy human donor pretreated with aspirin, stimulated with LPS (own knowledge: COX-2 is induced in monocytes)
T1 sequence (P35354 18-604): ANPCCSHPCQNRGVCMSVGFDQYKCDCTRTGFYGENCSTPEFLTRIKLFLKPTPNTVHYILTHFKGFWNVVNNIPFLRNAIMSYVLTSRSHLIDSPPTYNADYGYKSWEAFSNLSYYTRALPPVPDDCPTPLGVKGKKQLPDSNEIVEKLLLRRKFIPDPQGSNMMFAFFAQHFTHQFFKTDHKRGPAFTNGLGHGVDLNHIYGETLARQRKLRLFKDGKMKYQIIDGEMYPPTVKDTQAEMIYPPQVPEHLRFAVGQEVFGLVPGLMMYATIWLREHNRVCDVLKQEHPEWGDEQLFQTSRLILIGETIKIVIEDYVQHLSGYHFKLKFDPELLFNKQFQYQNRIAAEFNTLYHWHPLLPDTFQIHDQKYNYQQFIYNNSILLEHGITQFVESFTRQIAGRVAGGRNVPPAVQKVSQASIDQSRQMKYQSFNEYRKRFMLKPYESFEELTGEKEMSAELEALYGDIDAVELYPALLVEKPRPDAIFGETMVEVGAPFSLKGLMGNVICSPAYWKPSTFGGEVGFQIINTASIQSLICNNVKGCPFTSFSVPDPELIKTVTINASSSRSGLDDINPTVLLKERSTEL

carrageenan footedema = assay: Carrageenan Footedema Suppression Test; format: in vivo, SD rats; conditions: oral; paw volume three hours after carrageenan administration
Method: The carrageenin footedema suppression test was conducted according to the method of Winter et al. (J. Pharm. Exp. Ther., Vol.141, 369 (1963)). The test samples suspended in Tween 80 were administered orally to SD rats (6 rats per 1 group) in an amount of 1 ml per 100 g of the body weight, while only the solvent was administered in the same manner as above as a control. One hour after the administration, 1% carrageenan physiological saline was injected subcutaneously to the rats in the plantar area of the right hind paw. Three hours after the carrageenan administration, the paw volumes were measured and the edematization rate (%) was calculated with Formula 1 and then edematization suppression rate (%) was calculated with Formula 2.
Edematization rate (%)=((paw volume after carrageenan injection- paw volume before carrageenan injection)/(paw volume before carrageenan injection)×100 Formula: 1
Edematization suppression rate (%)=((edematization rate of control-
edematization rate of test samples)/edematization rate of […]

Human COX-1 = molecular target: T2, Human COX-1 (Homo sapiens, UniProt P23219); assay: Human COX-1 Inhibitory Activity Test (TXB2 in blood); format: cell-based; conditions: IC50 from Hill Plot
T2 construct: endogenous in cells; host or cells: whole blood of a healthy human donor (own knowledge: TXB2 of clotting blood comes from platelet COX-1)
T2 sequence (P23219 24-599): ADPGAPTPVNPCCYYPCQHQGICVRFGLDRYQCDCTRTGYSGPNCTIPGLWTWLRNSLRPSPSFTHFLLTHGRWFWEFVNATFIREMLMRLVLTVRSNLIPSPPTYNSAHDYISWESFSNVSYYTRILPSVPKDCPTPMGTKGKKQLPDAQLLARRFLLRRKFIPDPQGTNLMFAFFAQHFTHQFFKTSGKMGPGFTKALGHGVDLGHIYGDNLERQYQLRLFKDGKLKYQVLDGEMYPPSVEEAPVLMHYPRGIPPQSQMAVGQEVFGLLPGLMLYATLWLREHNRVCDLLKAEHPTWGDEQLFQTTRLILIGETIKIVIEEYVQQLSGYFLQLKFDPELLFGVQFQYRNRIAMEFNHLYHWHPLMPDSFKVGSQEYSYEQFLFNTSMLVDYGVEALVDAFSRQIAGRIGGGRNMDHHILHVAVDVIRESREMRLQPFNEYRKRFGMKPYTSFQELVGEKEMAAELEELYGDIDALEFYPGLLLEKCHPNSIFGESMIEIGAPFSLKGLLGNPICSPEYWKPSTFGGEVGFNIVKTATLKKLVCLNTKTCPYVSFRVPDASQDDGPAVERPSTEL
Method: COX-1 and COX-2 activities were measured according to the method of Patrignani et al. (J. Pharm. Exp. Ther. Vol. 271, 1705 (1994)).
(1) COX-1 activity was measured in the following procedure. […] The serum obtained by 10 minutes of centrifugation at 2000 rpm at 4° C. was stored at -40° C. until the measurement of the amount of thromboxane B2 (TXB2). The test samples, which had been dissolved in ethanol and diluted to the specified concentrations, were previously dispensed into the glass test tubes, and the solvent was evaporated to dryness by Centrifugal Vaporizer (CVE-200D, manufactured by Tokyo Rika Mfg. Co., Ltd.) so that the test samples were added to the plasma.
(3) The measurement for the TXB2 content was conducted in the following procedure. In a part of a 96 well plate coated with anti-rabbit IgG antibody, 2 wells were allotted respectively to blank well, Non-specific Binding (NSB) well, Maximum Binding (B0) well, standard wells at 7 concentrations of TXB2 (1000 pg/ml) in doubling dilution ranging from 1000-15.6 pg/ml. The rest of the wells were used for the measurement of the samples. EIA buffer was added to the NSB wells (100 μl ) and B0 wells (50 μl), respectively. 50 μl of each of the standard dilution was added in an order from thinner to thicker concentrations. Each of the samples was added to the rest of the wells in an amount of 50 μl. Then, 50 μl of TXB2 tracer was added to each of the wells except for the blank wells. Further, 50 μl of TXB2 antibody was added to each of the wells except for the NSB wells and blank wells, then the well plate was covered with a plastic film and the reaction continued for 18 hours at room temperature. When the reaction was terminated, the wells were washed 5 times with a wash buffer. 200 μl of Elman's reagent was added to each of the wells and then the well plate was covered with a plastic film and developed for 60 minutes in a dark place. The absorbance at 405 nm was measured by an Immuno Reader (NJ-2000, manufactured by Nippon Intermed Co., Ltd.). From the measurement result, %B/B0 was calculated and, applying it to the approximation formula of Hill Plot, the concentration of the samples was determined to be 2,000 times concentration. […]

IC50 (Human COX-1): 373 µM
SMILES: CS(=O)(=O)c1ccc(-c2[nH]ccc2-c2ccc(F)cc2)cc1 [Control compound (b), 4-(4-fluorophenyl)-5-(4-methylsulfonylphenyl)-1H-pyrrole, reference compound]
COX-1/COX-2 (value specified in the literature) (Human COX-2): 29.4
Edematization Suppression rate (carrageenan footedema): -1.8%
